Test results taken from US20260053811A1, “METHODS OF TREATING HYPERTENSION IN OBESE SUBJECTS” (Mineralys Therapeutics, Inc., priority 2022, published 2026).
Marks after values point to notes of the source that are not given here.

System: hypertensive subjects
Experiment: Seated automated office blood pressure (AOBP) in randomized, placebo-controlled, dose-ranging study
Type: in vivo, human
Parameters: Difference from placebo in change in blood pressure: unit not given here
Protocol: A randomized, double-blinded, placebo-controlled, dose-ranging, multicenter study was conducted to evaluate the effect of orally administered Compound A HBr on blood pressure for the treatment of hypertension in male and female subjects ≥18 years of age.
The study consists of two parts. For enrollment into Part 1 of the study, a subject's value of plasma renin activity (PRA) must be ≤1 ng/mL/h based on morning measurement. If the value of PRA >1 ng/mL/h based on morning measurement, then subjects may be eligible to enter Part 2 of the study.
For Part 1, 163 enrolled subjects ≥18 years of age were randomized into 6 equal treatment groups (1:1:1:1:1:1) to 12.5 mg BID, 25 mg BID, 12.5 mg QD, 50 mg QD, 100 mg QD, or placebo. After a review of interim clinical data, the 2 lowest dose levels (12.5 mg QD and 12.5 mg BID) were stopped for future randomization due to a lack of consistent meaningful reduction of blood pressure, but the patients randomized to that point remained in the study through completion. Thus, after the review of interim clinical data, subjects were randomized into 4 equal treatment groups (1:1:1:1) to 25 mg BID, 50 mg QD, 100 mg QD, or placebo.
For Part 2, 36 enrolled subjects ≥18 years of age were randomized (5:1) to either 100 mg QD Compound A HBr or placebo such that the Compound A HBr treatment group consisted of approximately 30 subjects and the placebo treatment group will consist of approximately 6 subjects.
Subjects orally administered the assigned study drug (Compound A HBr or placebo) according to the assigned dosing regimen for 8 weeks beginning on Study Day 1. All subjects in Part 1 (regardless of dosing group) received BID dosing to preserve the integrity of the blind; active drug is administered as the morning dose for all QD dose groups. Subjects returned to the research facility or were seen by the clinical investigator or approved home health care professional at the end of Study Weeks 1, 2, 3, 4, 5, 6, 7, and 8 (±2 days) for protocol-defined efficacy and safety assessments and procedures, assessment of adverse events (AEs), and confirmation of compliance with study drug usage. Subjects also completed a telephone visit and blood pressure (BP) check at home approximately 3 days post last dose of study drug. Subjects attended up to 14 full clinic visits, including a pre-Screening visit, a Screening/start of Placebo Run-in visit, a second visit during Placebo Run-in, a clinic visit to initiate the ABPM procedure, a Randomization visit, 8 weekly visits during double-blind treatment, and an end-of-study visit scheduled 4 weeks after the last study treatment for final efficacy and safety assessments.
An automated oscillometric sphygmomanometer device was used to measure the subjects' systolic and diastolic blood pressure in office after approximately 5 minutes of rest in the seated position.
The primary endpoint is the change in office-measured (mean of last 2 of 5 unattended measurements using an automated oscillometric sphygmomanometer device after approximately 5 minutes of rest in the seated position) systolic blood pressure (SBP) from baseline to the end of Study Week 8.
Secondary endpoints of this study were: • (a) Change in 24-hour ambulatory blood pressure monitoring (ABPM) parameters (systolic and diastolic) from baseline to the end of Study Week 7. • (b) Change in office-measured SBP from baseline to the end of Study Weeks 1, 2, 3, 4, 5, 6, and 7. • (c) Change in office-measured diastolic blood pressure (DBP) from baseline to the end of Study Weeks 1, 2, 3, 4, 5, 6, 7, and 8. • (d) Proportion of subjects who achieve office-measured BP of ≤130/80 mm Hg by the end of Study Week 8.

## CC(=O)N[C@H]1CC[C@H](NC(=O)CN2CCN(c3nncc(-c4ccc(C)cc4)n3)CC2)CC1 [Compound A HBr]
25 mg BID, Thiazide Yes
  Difference from placebo in change in blood pressure: −8.3
25 mg BID, Week 1, Part 1, FAS
  Seated AOBP DBP change from baseline (CFB), Mean (SD): −2.22 (5.68) mmHg
  Seated AOBP DBP, Mean (SD): 76.70 (9.28) mmHg
  Seated AOBP SBP change from baseline (CFB), Mean (SD): −6.57 (10.78) mmHg
  Seated AOBP SBP, Mean (SD): 134.37 (14.17) mmHg
25 mg BID, Week 2, Part 1, FAS
  Seated AOBP DBP change from baseline (CFB), Mean (SD): −2.42 (8.03) mmHg
  Seated AOBP DBP, Mean (SD): 76.50 (10.74) mmHg
  Seated AOBP SBP change from baseline (CFB), Mean (SD): −6.37 (13.43) mmHg
  Seated AOBP SBP, Mean (SD): 134.57 (17.75) mmHg
25 mg BID, Week 3, Part 1, FAS
  Seated AOBP DBP change from baseline (CFB), Mean (SD): −0.55 (14.99) mmHg
  Seated AOBP DBP, Mean (SD): 78.72 (15.35) mmHg
  Seated AOBP SBP change from baseline (CFB), Mean (SD): −5.34 (18.35) mmHg
  Seated AOBP SBP, Mean (SD): 136.34 (19.78) mmHg
25 mg BID, Week 4, Part 1, FAS
  LSM Δ with Placebo, seated AOBP DBP (MMRM): −5.94 mmHg
  Modelled (MMRM) LSM (SEM) change from baseline, seated AOBP DBP: −6.47 (1.41) mmHg
  Seated AOBP DBP change from baseline (CFB), Mean (SD): −5.80 (7.01) mmHg
  Seated AOBP DBP, Mean (SD): 73.26 (7.79) mmHg
  Seated AOBP SBP change from baseline (CFB), Mean (SD): −9.63 (12.34) mmHg
  Seated AOBP SBP, Mean (SD): 131.85 (13.59) mmHg
25 mg BID, Week 5, Part 1, FAS
  Seated AOBP DBP change from baseline (CFB), Mean (SD): −2.82 (8.82) mmHg
  Seated AOBP DBP, Mean (SD): 76.29 (9.91) mmHg
  Seated AOBP SBP change from baseline (CFB), Mean (SD): −9.16 (15.72) mmHg
  Seated AOBP SBP, Mean (SD): 132.25 (16.30) mmHg
25 mg BID, Week 6, Part 1, FAS
  Seated AOBP DBP change from baseline (CFB), Mean (SD): −3.07 (8.82) mmHg
  Seated AOBP DBP, Mean (SD): 76.04 (10.57) mmHg
  Seated AOBP SBP change from baseline (CFB), Mean (SD): −7.09 (11.66) mmHg
  Seated AOBP SBP, Mean (SD): 134.32 (13.96) mmHg
25 mg BID, Week 7, Part 1, FAS
  Seated AOBP DBP change from baseline (CFB), Mean (SD): −4.87 (8.84) mmHg
  Seated AOBP DBP, Mean (SD): 73.89 (10.76) mmHg
  Seated AOBP SBP change from baseline (CFB), Mean (SD): −11.00 (13.60) mmHg
  Seated AOBP SBP, Mean (SD): 130.74 (15.42) mmHg
25 mg BID, Week 8, Part 1, FAS
  LSM Δ from Placebo, change from baseline in seated AOBP SBP (MMRM): −6.97 mmHg
  LSM Δ with Placebo, seated AOBP DBP (MMRM): −2.49 mmHg
  Modelled (MMRM) LSM (SEM) change from baseline, seated AOBP DBP: −4.12 (1.68) mmHg
  Modelled (MMRM) LSM (SEM) change from baseline, seated AOBP SBP: −11.07 (2.65) mmHg
  Seated AOBP DBP change from baseline (CFB), Mean (SD): −3.68 (11.71) mmHg
  Seated AOBP DBP, Mean (SD): 75.43 (13.06) mmHg
  Seated AOBP SBP change from baseline (CFB), Mean (SD): −10.13 (14.02) mmHg
  Seated AOBP SBP, Mean (SD): 131.29 (16.59) mmHg
  Subjects with seated AOBP SBP/DBP ≤130/80 mmHg: No: 17 (56.7) n (%)
  Subjects with seated AOBP SBP/DBP ≤130/80 mmHg: Yes: 13 (43.3) n (%)
50 mg QD, BMI 25-30
  Difference from placebo in change in blood pressure: 2.0
50 mg QD, BMI >30
  Difference from placebo in change in blood pressure: −16.6*
50 mg QD, Part 1, Week 8
  Mean placebo-adjusted reduction in AOBP SBP: 9.58 mmHg
  Placebo-adjusted reduction in AOBP DBP, thiazide diuretic use at baseline: −7.7 mmHg
  Placebo-adjusted reduction in AOBP SBP from baseline, by baseline AOBP SBP tertile: −19.9 mmHg
